Reference: patent US9169254B2, “Spiroimidazolone derivative” (Chugai Seiyaku Kabushiki Kaisha, priority 2009, dated 2015)

target: T1, human PTH1 receptor (Homo sapiens, UniProt Q03431); assay: In vitro cAMP signal activity in HKRK-B7 cells (LLC-PK1 cells overexpressing the human PTH1 receptor); assay type: cell-based; conditions: HKRK-B7 cells; compound at 1×10^−3 M; cAMP produced as percentage of that produced by hPTH(1-34) at 100 nM
T1 sequence (Q03431 27-593): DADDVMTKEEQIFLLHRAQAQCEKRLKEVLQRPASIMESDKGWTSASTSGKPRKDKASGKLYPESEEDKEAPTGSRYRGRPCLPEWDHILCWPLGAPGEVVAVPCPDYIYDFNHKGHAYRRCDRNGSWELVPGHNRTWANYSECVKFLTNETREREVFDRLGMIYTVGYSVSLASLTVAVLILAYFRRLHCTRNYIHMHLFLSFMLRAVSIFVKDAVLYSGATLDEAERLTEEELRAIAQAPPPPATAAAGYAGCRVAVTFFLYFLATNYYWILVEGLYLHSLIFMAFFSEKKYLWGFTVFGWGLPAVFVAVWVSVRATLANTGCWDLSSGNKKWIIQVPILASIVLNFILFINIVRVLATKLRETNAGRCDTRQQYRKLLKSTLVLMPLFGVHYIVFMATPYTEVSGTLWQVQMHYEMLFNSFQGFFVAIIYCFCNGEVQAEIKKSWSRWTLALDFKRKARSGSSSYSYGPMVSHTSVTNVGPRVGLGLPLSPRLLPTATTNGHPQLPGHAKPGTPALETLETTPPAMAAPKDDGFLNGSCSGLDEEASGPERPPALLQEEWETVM

cAMP production activity (%) | Structure (SMILES)
54% | O=C1NC(c2cccc(C(F)(F)F)c2)=NC12CCN(S(=O)(=O)CCc1ccc(NCCO)cc1C(F)(F)F)CC2 [Compound 286, 8-{2-[4-(2-hydroxy-ethylamino)-2-trifluoromethyl-phenyl]-ethanesulfonyl}-2-(3-trifluoromethyl-phenyl)-1,3,8-triaza-spiro[4.5]dec-1-en-4-one]
58% | Cc1cc(S(=O)(=O)NCCCCO)ccc1CCS(=O)(=O)N1CCC2(CC1)N=C(c1cccc(OC(F)(F)F)c1)NC2=O [Compound 287, N-(4-hydroxy-butyl)-3-methyl-4-{2-[4-oxo-2-(3-trifluoromethoxy-phenyl)-1,3,8-triaza-spiro[4.5]dec-1-ene-8-sulfonyl]-ethyl}-benzenesulfonamide]
82% | Cc1cc(C(=O)N2CCCC2)ccc1CCS(=O)(=O)N1CCC2(CC1)N=C(c1cccc(C(F)(F)F)c1)NC2=O [Compound 288, 8-{2-[2-methyl-4-(pyrrolidine-1-carbonyl)-phenyl]-ethanesulfonyl}-2-(3-trifluoromethyl-phenyl)-1,3,8-triaza-spiro[4.5]dec-1-en-4-one]
99% | Cc1cc(C(=O)N2CCN(C)CC2)ccc1CCS(=O)(=O)N1CCC2(CC1)N=C(c1cccc(C(F)(F)F)c1)NC2=O [Compound 289, 8-{2-[2-methyl-4-(4-methyl-piperazine-1-carbonyl)-phenyl]-ethanesulfonyl}-2-(3-trifluoromethyl-phenyl)-1,3,8-triaza-spiro[4.5]dec-1-en-4-one]
76% | Cc1cc(S(=O)(=O)NCC(F)(F)F)ccc1CCS(=O)(=O)N1CCC2(CC1)N=C(c1cccc(C(F)(F)F)c1)NC2=O [Compound 290, 3-methyl-4-{2-[4-oxo-2-(3-trifluoromethyl-phenyl)-1,3,8-triaza-spiro[4.5]dec-1-ene-8-sulfonyl]-ethyl}-N-(2,2,2-trifluoro-ethyl)-benzenesulfonamide]
66% | Cc1cc(S(N)(=O)=O)ccc1CCS(=O)(=O)N1CCC2(CC1)N=C(c1cccc(C(F)(F)F)c1)NC2=O [Compound 291, 3-methyl-4-{2-[4-oxo-2-(3-trifluoromethyl-phenyl)-1,3,8-triaza-spiro[4.5]dec-1-ene-8-sulfonyl]-ethyl}-benzenesulfonamide]
58% | Cc1cc(S(=O)(=O)NCCN2CCOCC2)ccc1CCS(=O)(=O)N1CCC2(CC1)N=C(c1cccc(C(F)(F)F)c1)NC2=O [Compound 292, 3-methyl-N-(2-morpholin-4-yl-ethyl)-4-{2-[4-oxo-2-(3-trifluoromethyl-phenyl)-1,3,8-triaza-spiro[4.5]dec-1-ene-8-sulfonyl]-ethyl}-benzenesulfonamide]
38% | CN(C)C(=O)c1ccc(CCS(=O)(=O)N2CCC3(CC2)N=C(c2cccc(OC(F)(F)F)c2)NC3=O)c(F)c1 [Compound 293, 3-fluoro-N,N-dimethyl-4-{2-[4-oxo-2-(3-trifluoromethoxy-phenyl)-1,3,8-triaza-spiro[4.5]dec-1-ene-8-sulfonyl]-ethyl}-benzamide]
106% | Cc1cc(S(=O)(=O)Nc2cccnc2)ccc1CCS(=O)(=O)N1CCC2(CC1)N=C(c1cccc(C(F)(F)F)c1)NC2=O [Compound 294, 3-methyl-4-{2-[4-oxo-2-(3-trifluoromethyl-phenyl)-1,3,8-triaza-spiro[4.5]dec-1-ene-8-sulfonyl]-ethyl}-N-pyridin-3-yl-benzenesulfonamide]
95% | Cc1cc(OCCCN(C)C)ccc1CCS(=O)(=O)N1CCC2(CC1)N=C(c1cccc(OC(F)(F)F)c1)NC2=O [Compound 295, 8-{2-[4-(3-dimethylamino-propoxy)-2-methyl-phenyl]-ethanesulfonyl}-2-(3-trifluoromethoxy-phenyl)-1,3,8-triaza-spiro[4.5]dec-1-en-4-one]
65% | Cc1cc(N2C[C@H](CO)OC2=O)ccc1CCS(=O)(=O)N1CCC2(CC1)N=C(c1cccc(C(F)(F)F)c1)NC2=O [Compound 296, 8-{2-[4-((R)-5-hydroxymethyl-2-oxo-oxazolidin-3-yl)-2-methyl-phenyl]-ethanesulfonyl}-2-(3-trifluoromethyl-phenyl)-1,3,8-triaza-spiro[4.5]dec-1-en-4-one]
91% | Cc1cc(N2C[C@H](O)CC2=O)ccc1CCS(=O)(=O)N1CCC2(CC1)N=C(c1cccc(C(F)(F)F)c1)NC2=O [Compound 297, 8-{2-[4-((R)-4-hydroxy-2-oxo-pyrrolidin-1-yl)-2-methyl-phenyl]-ethanesulfonyl}-2-(3-trifluoromethyl-phenyl)-1,3,8-triaza-spiro[4.5]dec-1-en-4-one]
63% | CC(=O)Nc1ccc(CCS(=O)(=O)N2CCC3(CC2)N=C(c2cccc(C(F)(F)F)c2)NC3=O)c(C)c1 [Compound 298, N-(3-methyl-4-{2-[4-oxo-2-(3-trifluoromethyl-phenyl)-1,3,8-triaza-spiro[4.5]dec-1-ene-8-sulfonyl]-ethyl}-phenyl)-acetamide]
83% | CC(=O)N(C)c1ccc(CCS(=O)(=O)N2CCC3(CC2)N=C(c2cccc(OC(F)(F)F)c2)NC3=O)c(C)c1 [Compound 299, N-methyl-N-(3-methyl-4-{2-[4-oxo-2-(3-trifluoromethoxy-phenyl)-1,3,8-triaza-spiro[4.5]dec-1-ene-8-sulfonyl]-ethyl}-phenyl)-acetamide]
73% | Cc1cc(N(C)C(=O)CO)ccc1CCS(=O)(=O)N1CCC2(CC1)N=C(c1cccc(OC(F)(F)F)c1)NC2=O [Compound 300, 2-hydroxy-N-methyl-N-(3-methyl-4-{2-[4-oxo-2-(3-trifluoromethoxy-phenyl)-1,3,8-triaza-spiro[4.5]dec-1-ene-8-sulfonyl]-ethyl}-phenyl)-acetamide]
72% | Cc1cc(N(C)C(N)=O)ccc1CCS(=O)(=O)N1CCC2(CC1)N=C(c1cccc(OC(F)(F)F)c1)NC2=O [Compound 301, 1-methyl-1-(3-methyl-4-{2-[4-oxo-2-(3-trifluoromethoxy-phenyl)-1,3,8-triaza-spiro[4.5]dec-1-ene-8-sulfonyl]-ethyl}-phenyl)-urea]
95% | CC(=O)Nc1cc(C)c(CCS(=O)(=O)N2CCC3(CC2)N=C(C2CCCCC2)NC3=O)c(C)c1 [Compound 302, N-{4-[2-(2-cyclohexyl-4-oxo-1,3,8-triaza-spiro[4.5]dec-1-ene-8-sulfonyl)-ethyl]-3,5-dimethyl-phenyl}-acetamide]
76% | O=C1NC(C2CCCCC2)=NC12CCN(S(=O)(=O)CCc1cccc3[nH]ccc13)CC2 [Compound 303, 2-Cyclohexyl-8-[2-(1H-indol-4-yl)-ethanesulfonyl]-1,3,8-triaza-spiro[4.5]dec-1-en-4-one]
47% | O=C1NC(c2cccc(OC(F)(F)F)c2)=NC12CCN(S(=O)(=O)CCc1ccccc1C(F)(F)F)CC2 [Compound 304, 2-(3-trifluoromethoxy-phenyl)-8-[2-(2-trifluoromethyl-phenyl)-ethanesulfonyl]-1,3,8-triaza-spiro[4.5]dec-1-en-4-one]
73% | O=C1NC(c2cccc(OC(F)(F)F)c2)=NC12CCN(S(=O)(=O)CCc1cccc3[nH]ccc13)CC2 [Compound 305, 8-[2-(1H-indol-4-yl)-ethanesulfonyl]-2-(3-trifluoromethoxy-phenyl)-1,3,8-triaza-spiro[4.5]dec-1-en-4-one]
45% | CC1CCC(C2=NC3(CCN(S(=O)(=O)CCc4cccc5[nH]ccc45)CC3)C(=O)N2)CC1 (centres unmarked) [Compound 306, 8-[2-(1H-indol-4-yl)-ethanesulfonyl]-2-(4-methyl-cyclohexyl)-1,3,8-triaza-spiro[4.5]dec-1-en-4-one]
58% | O=C1NC(c2cccc(OC(F)(F)F)c2)=NC12CCN(S(=O)(=O)CCc1cccc3c1OC(F)(F)O3)CC2 [Compound 307, 8-[2-(2,2-difluoro-benzo[1,3]dioxol-4-yl)-ethanesulfonyl]-2-(3-trifluoromethoxy-phenyl)-1,3,8-triaza-spiro[4.5]dec-1-en-4-one]
72% | Cn1ccc2cccc(CCS(=O)(=O)N3CCC4(CC3)N=C(c3cccc(OC(F)(F)F)c3)NC4=O)c21 [Compound 308, 8-[2-(1-methyl-1H-indol-7-yl)-ethanesulfonyl]-2-(3-trifluoromethoxy-phenyl)-1,3,8-triaza-spiro[4.5]dec-1-en-4-one]
72% | O=C1NC(C2CCCCC2)=NC12CCN(S(=O)(=O)CCc1cccc3c1ccn3C[C@H](O)CO)CC2 [Compound 309, 2-cyclohexyl-8-{2-[1-((S)-2,3-dihydroxy-propyl)-1H-indol-4-yl]-ethanesulfonyl}-1,3,8-triaza-spiro[4.5]dec-1-en-4-one]
76% | CN(C)C(=O)n1ccc2c(CCS(=O)(=O)N3CCC4(CC3)N=C(C3CCCCC3)NC4=O)cccc21 [Compound 310, 4-[2-(2-cyclohexyl-4-oxo-1,3,8-triaza-spiro[4.5]dec-1-ene-8-sulfonyl)-ethyl]-indole-1-carboxylic acid dimethylamide]
67% | CC1CCC(C2=NC3(CCN(S(=O)(=O)CCCc4cccc5[nH]ccc45)CC3)C(=O)N2)CC1 (centres unmarked) [Compound 311, 8-[3-(1H-indol-4-yl)-propane-1-sulfonyl]-2-(4-methyl-cyclohexyl)-1,3,8-triaza-spiro[4.5]dec-1-en-4-one]
